Measured values reported in patent publication EP2649091B1, “IMMUNE RESTRICTED PEPTIDES WITH INCREASED EFFICACY” (Stichting Het Nederlands Kanker Instituut, priority 2010, dated 2012).

Legend:
HLA-A0201 = HLA-A0201 (Homo sapiens, UniProt P04439, D140Y/D185E/D98H/E176V/E277Q/G131W/G231S/I119V/I121R/I166T/I218V/L300P/L318F/N151K/N90K/P208A/P217A/Q86G/Q94H/R138H/R169H/T345S); assay type: binding
[1] = test system: HLA-A2::Mart-1(26-35) reactive T cells stimulated by T2 cells; test: T cell activation time course assay, IFNγ production (FACS), Mart-1 epitope; assay type: cell-based; conditions: for % CD8+ T cells producing IFN-γ 0H / Geometric mean IFN-γ in arbitrary fluorescence units 0H: time point 0H (basal); for % CD8+ T cells producing IFN-γ 2H / Geometric mean IFN-γ in arbitrary fluorescence units 2H: time point 2H; for % CD8+ T cells producing IFN-γ 4H / Geometric mean IFN-γ in arbitrary fluorescence units 4H: time point 4H; for % CD8+ T cells producing IFN-γ 24H / Geometric mean IFN-γ in arbitrary fluorescence units 24H: time point 24H; for % CD8+ T cells producing IFN-γ 24H / Geometric mean IFN-γ in arbitrary fluorescence units 24H / % CD8+ T cells producing IFN-γ 48H / Geometric mean IFN-γ in arbitrary fluorescence units 48H: free peptide washed away; for % CD8+ T cells producing IFN-γ 48H / Geometric mean IFN-γ in arbitrary fluorescence units 48H: time point 48H
[2] = test system: SVYDFFVWL (TRP-2 180-188) reactive T cells; test: T cell activation time course assay, IFNγ production (FACS), TRP-2 epitope

## E[2-AOC]AGIGI[4FPHE]T[OM-HS]
HLA-A0201
  % inhibition at T=4H and T=24H FP 4h: 78%
  % inhibition at T=4H and T=24H FP 24h: 66%
  IC50 Ratio: 1.9

## [3-PYRA]MYSDFHFI
HLA-A0201
  % inhibition at T=4H and T=24H FP 4H: 79%
  % inhibition at T=4H and T=24H FP 24H: 76%

## [CSCF3][2-AOC]YDFFVWL
HLA-A0201
  % inhibition at T=4H and T=24H FP 4H: 91%
  % inhibition at T=4H and T=24H FP 24H: 79%

## [CSME]AAGIGI[4-FPHE]TV
HLA-A0201
  % inhibition at T=4H and T=24H FP 4h: 63%
  % inhibition at T=4H and T=24H FP 24h: 58%

## [CSME][2-AOC]AGIGILTV
[1]; peptide 0.5 pM
  % CD8+ T cells producing IFN-γ 0H: 0%
  Geometric mean IFN-γ in arbitrary fluorescence units 0H: 101 arbitrary fluorescence units
  % CD8+ T cells producing IFN-γ 2H: 27%
  Geometric mean IFN-γ in arbitrary fluorescence units 2H: 219 arbitrary fluorescence units
  % CD8+ T cells producing IFN-γ 4H: 29%
  Geometric mean IFN-γ in arbitrary fluorescence units 4H: 368 arbitrary fluorescence units
  % CD8+ T cells producing IFN-γ 24H: 18%
  Geometric mean IFN-γ in arbitrary fluorescence units 24H: 167 arbitrary fluorescence units
  % CD8+ T cells producing IFN-γ 48H: 7%
  Geometric mean IFN-γ in arbitrary fluorescence units 48H: 119 arbitrary fluorescence units
[1]; peptide 50 pM
  % CD8+ T cells producing IFN-γ 0H: 0%
  Geometric mean IFN-γ in arbitrary fluorescence units 0H: 111 arbitrary fluorescence units
  % CD8+ T cells producing IFN-γ 2H: 28%
  Geometric mean IFN-γ in arbitrary fluorescence units 2H: 249 arbitrary fluorescence units
  % CD8+ T cells producing IFN-γ 4H: 31%
  Geometric mean IFN-γ in arbitrary fluorescence units 4H: 563 arbitrary fluorescence units
  % CD8+ T cells producing IFN-γ 24H: 27%
  Geometric mean IFN-γ in arbitrary fluorescence units 24H: 397 arbitrary fluorescence units
  % CD8+ T cells producing IFN-γ 48H: 20%
  Geometric mean IFN-γ in arbitrary fluorescence units 48H: 288 arbitrary fluorescence units

## [CSME][2-AOC]AGIGILT[PRG]
HLA-A0201
  % inhibition at T=4H and T=24H FP 4h: 72%
  % inhibition at T=4H and T=24H FP 24h: 70%
  IC50 Ratio: 14.8

## [CSME][2-AOC]KDVEERV
HLA-A0201
  % inhibition at T=4H and T=24H FP 4h: 60%
  % inhibition at T=4H and T=24H FP 24h: 56%

## [CSME][2-AOC]YDFFVWL
[2]; 24H, peptide 0.5 pM
  % CD8+ T cells producing IFN-γ peptide concentrations in picomolar 24H 0.5: 1%
  Geometric mean IFN-γ in arbitrary fluorescence units peptide concentrations in picomolar 24H 0.5: 71 arbitrary fluorescence units
[2]; 24H, peptide 50 pM
  % CD8+ T cells producing IFN-γ peptide concentrations in picomolar 24H 50: 20%
[2]; 24H, peptide 5·10^3 pM
  % CD8+ T cells producing IFN-γ peptide concentrations in picomolar 24H 5·10^3: 30%
  Geometric mean IFN-γ in arbitrary fluorescence units peptide concentrations in picomolar 24H 5·10^3: 264 arbitrary fluorescence units
[2]; 48H, peptide 0.5 pM
  % CD8+ T cells producing IFN-γ peptide concentrations in picomolar 48H 0.5: 0%
  Geometric mean IFN-γ in arbitrary fluorescence units peptide concentrations in picomolar 48H 0.5: 68 arbitrary fluorescence units
[2]; 48H, peptide 50 pM
  % CD8+ T cells producing IFN-γ peptide concentrations in picomolar 48H 50: 5%
[2]; 48H, peptide 5·10^3 pM
  % CD8+ T cells producing IFN-γ peptide concentrations in picomolar 48H 5·10^3: 33%
  Geometric mean IFN-γ in arbitrary fluorescence units peptide concentrations in picomolar 48H 5·10^3: 224 arbitrary fluorescence units
HLA-A0201
  % inhibition at T=4H and T=24H FP 4H: 88%
  % inhibition at T=4H and T=24H FP 24H: 76%
  % inhibition at T=4H and T=24H FP 4h: 88%
  % inhibition at T=4H and T=24H FP 24h: 76%
